Laboratory results: article PMC4977651, “Molecular features of biguanides required for targeting of mitochondrial respiratory complex I and activation of AMP-kinase” (BMC Biology, 2016)
Values joined by “and” are separate entries in the source; they are usually repeats but may differ in a detail not shown here. Identical values can stand only once.

Experiments:
[1] = target: bovine heart mitochondrial membranes (complex I) (Bos taurus, UniProt P03887+P03898+P17694+P42026); assay: NADH:O2 oxidoreduction by bovine heart mitochondrial membranes (complexes I-III-IV); assay type: biochemical; conditions: for LogIC50 (best fit value): log of concentration in mM; for LogIC50 (best fit value) / IC50 / HillSlope (best fit value): sample given as Bovine heart mitochondrial membranes, Bottom 0, Top 100; for LogIC50 (best fit value) / HillSlope (best fit value): Prism variable slope fit; for IC50: Prism log(inhibitor) vs. response variable slope fit (four parameters), read-out: IC50 (best fit value)
Protocol: (§1) Complex I and mitochondrial membranes were prepared from Bos taurus (bovine) heart. Intact mitochondria were isolated from rat liver and mouse heart and liver. Membranes were prepared from mouse heart mitochondria by 5 s bursts of sonication at 4 °C and collected by centrifugation (75,000 × g, 1 h).
Assays were performed at 32 °C in a SpectraMax 96-well plate reader. NADH:decylubiquinone oxidoreduction by complex I at 0.5 μg mL^−1 was measured in 20 mM Tris-HCl (pH 7.2), 0.15 % soy bean asolectin (Avanti Polar Lipids), and 0.15 % 3-((3-cholamidopropyl)dimethylammonium)-1-propanesulfonate (CHAPS, Merck Chemicals Ltd), with 200 μM decylubiquinone and 200 μM NADH, and monitored using ε340–380(NADH) = 4.81 mM^−1 cm^−1 [23]. Catalysis was initiated by addition of NADH and maximal rates determined by linear regression. NADH:O2 oxidoreduction by membranes was measured similarly but using 5 μg mL^−1 membranes in 10 mM Tris-HCl (pH 7.4) and 250 mM sucrose using 200 μM NADH and supplemented with 0.15 mM horse heart cytochrome c (Sigma-Aldrich Ltd.). Succinate:O2 oxidoreduction was measured using 40 μg mL^−1 membranes in 5 mM succinate in 10 mM Tris-HCl (pH 7.4) as described previously. Control experiments included NaCl (to match the ionic strength) or DMSO, as appropriate.
Experimental values are reported as mean averages ± standard deviation (SD) of technical replicates for large sample sizes and mean averages ± standard error of the mean (SEM) of technical replicates for small sample sizes. Data were analyzed by the unpaired two-tailed Student’s t test. IC50 values were determined using the standard dose-effect relationship (activity (%) = 100 × IC50 / (IC50 + [inhibitor]^m) with the Hill Slope (m) set to unity for purified complex I) and are reported with 95 % confidence intervals.

143B cells = assay: Rotenone-sensitive oxygen consumption rate in intact 143B cells; assay type: cell-based, human; conditions: for rotenone sensitive OCR after 6 hours of biguanide exposure, % control, average / rotenone sensitive OCR after 6 hours of biguanide exposure, average: biguanide at IC50/10; for rotenone sensitive OCR after 6 hours of biguanide exposure, average: OCR normalized to OCR immediately prior to biguanide addition; for inhibition of rotenone-sensitive respiration (in words): intact 143B cells, biguanide at IC50/10, monitored for 6 h
Protocol: 143B (CRL-8303 from ATCC), HepG2 (85011430 from The Health Protection Agency), and MDBK (CCL-22 from ATCC) cells were grown on Dulbecco’s modified Eagle’s medium (DMEM) supplemented with 10 % fetal bovine serum (FBS, Thermo Fisher Scientific) at 37 °C in 5 % CO2. All cells were confirmed as negative for mycoplasma.
Oxygen consumption rates (OCRs) were measured using a Seahorse XF96 extracellular flux analyzer at 37 °C. For intact cell measurements, 1.4 × 10^4 143B, HepG2, or MDBK cells were plated (per well) in DMEM containing 10 % FBS into Seahorse Bioscience Inc. XF96 plates and incubated for ~12 h at 37 °C in 5 % CO2. Then, the medium was exchanged for assay buffer containing DMEM, 4.5 g L^−1 glucose, 1 mM pyruvate, 32 mM NaCl, 2 mM GlutaMAX, 15 mg L^−1 phenol red, and 20 mM HEPES (pH 7.4 at 37 °C) and the cells placed in a CO2-free incubator at 37 °C for 30 min. Basal oxygen consumption rates were established before the addition of biguanides at one-tenth of their IC50 (IC50/10), and followed for ~ 6 h before the addition of rotenone (2 μM).
(§2) Rotenone-sensitive OCRs were calculated by subtracting the rotenone-insensitive rates (determined at the end of the experiment). OCRs were normalized by dividing by the OCR recorded immediately prior to the addition of biguanide. For rate of uptake calculations, the OCRs at time points after biguanide addition were divided by the OCRs at the same time points in control experiments. Data from wells with failed port injections were excluded from the analyses. The respiratory control ratio (RCR) values (state III versus state IV respiration) were ~11 and ~6 for permeabilized MDBK and 143B cells, respectively.

permeabilized MDBK cells = assay: ADP-stimulated rotenone-sensitive OCR in permeabilized MDBK cells; assay type: cell-based, Bos taurus; design: rotenone sensitive OCR after ADP stimulation, average / rotenone sensitive OCR after ADP stimulation: unit not given here; conditions: for inhibition of OCR: MDBK cells, 30 min, data used for Fig. 4c matrix concentration estimate; for rotenone sensitive OCR after ADP stimulation, % of control, average / rotenone sensitive OCR after ADP stimulation, average / rotenone sensitive OCR after ADP stimulation / rotenone sensitive OCR after ADP stimulation, % of control: MDBK permeabilised cells; for rotenone sensitive OCR after ADP stimulation, % of control, average / rotenone sensitive OCR after ADP stimulation, average: average of replicates; for rotenone sensitive OCR after ADP stimulation / rotenone sensitive OCR after ADP stimulation, % of control: individual replicates
Protocol: For permeabilized cell experiments, cells were seeded into XF96 plates at 0.9–1.1 × 10^4 per well and incubated for 48 h at 37 °C in 5 % CO2. Then, the growth medium was exchanged for assay buffer containing 3 nM plasma membrane permeabilizer ‘PMP’ (Seahorse Biosciences Inc.), 10 mM glutamate, 10 mM malate, 220 mM mannitol, 70 mM sucrose, 10 mM KH2PO4, 5 mM MgCl2, 1 mM EGTA, 0.2 % fatty acid-free bovine serum albumin (BSA), and 2 mM HEPES (pH 7.4 at 37 °C). […] The biguanides were allowed to accumulate for 30 min, then respiration was […] by the addition of 4 mM ADP. Rotenone was added (2 μM) at the end of the experiment.
as §2

mouse liver mitochondria = assay: ADP-stimulated rotenone-sensitive OCR in isolated mouse liver mitochondria; assay type: biochemical; design: rotenone sensitive OCR after ADP stimulation, individual replicates / rotenone sensitive OCR after ADP stimulation, average: unit not given here; conditions: for rotenone sensitive OCR after ADP stimulation, % of control, average / rotenone sensitive OCR after ADP stimulation, average: average of replicates; for rotenone sensitive OCR after ADP stimulation, % of control, individual replicates / rotenone sensitive OCR after ADP stimulation, individual replicates: replicate 1-5
Protocol: as §1
Isolated mitochondria were monitored using a Seahorse XF96 extracellular flux analyzer at 32 °C. Mouse heart mitochondria, and mouse and rat liver mitochondria were plated into XF96 plates at 4 and 16–20 μg per well, respectively, in 220 mM mannitol, 70 mM sucrose, 10 mM KH2PO4, 5 mM MgCl2, 1 mM EGTA, 0.2 % fatty acid-free BSA, and 2 mM HEPES (pH 7.4 at 37 °C) with 10 mM glutamate and 10 mM malate and adhered by centrifugation (2000 × g, 20 min, 4 °C). The medium was supplemented with a further 5 mM glutamate and 5 mM malate and the mitochondria incubated for 15 min. Then two baseline readings were taken before the biguanides were added at IC50/5. Biguanides were allowed to accumulate for 15–20 min before respiration was […] by the addition of 4 mM ADP. Rotenone (2 μM) was added at the end of the experiment. Data from wells with failed port injections were excluded from the analyses. The RCR values (state III versus state IV respiration) were 3.4, 4.8, and 4.6 for mouse heart, rat liver, and mouse liver, respectively.

Sequence of bovine heart mitochondrial membranes (complex I) (P42026 38-216): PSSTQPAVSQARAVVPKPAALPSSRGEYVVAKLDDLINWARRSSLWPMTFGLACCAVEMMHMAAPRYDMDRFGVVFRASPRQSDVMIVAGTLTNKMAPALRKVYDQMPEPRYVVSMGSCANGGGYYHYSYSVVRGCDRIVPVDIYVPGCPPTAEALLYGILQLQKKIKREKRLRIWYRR
Sequence of bovine heart mitochondrial membranes (complex I) (P17694 34-463): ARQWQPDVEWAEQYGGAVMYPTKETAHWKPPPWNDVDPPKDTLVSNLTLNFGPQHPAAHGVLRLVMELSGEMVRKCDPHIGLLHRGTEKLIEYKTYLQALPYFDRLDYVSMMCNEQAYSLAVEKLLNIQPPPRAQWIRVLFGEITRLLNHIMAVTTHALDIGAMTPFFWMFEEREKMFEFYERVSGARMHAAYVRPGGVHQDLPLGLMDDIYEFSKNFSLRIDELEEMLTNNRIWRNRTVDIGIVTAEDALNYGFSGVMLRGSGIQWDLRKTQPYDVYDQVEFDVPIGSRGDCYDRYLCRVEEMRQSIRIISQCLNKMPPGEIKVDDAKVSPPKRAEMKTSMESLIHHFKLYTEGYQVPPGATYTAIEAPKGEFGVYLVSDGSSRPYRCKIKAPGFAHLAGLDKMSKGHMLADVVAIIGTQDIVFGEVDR
Sequence of bovine heart mitochondrial membranes (complex I) (P03887 whole entry): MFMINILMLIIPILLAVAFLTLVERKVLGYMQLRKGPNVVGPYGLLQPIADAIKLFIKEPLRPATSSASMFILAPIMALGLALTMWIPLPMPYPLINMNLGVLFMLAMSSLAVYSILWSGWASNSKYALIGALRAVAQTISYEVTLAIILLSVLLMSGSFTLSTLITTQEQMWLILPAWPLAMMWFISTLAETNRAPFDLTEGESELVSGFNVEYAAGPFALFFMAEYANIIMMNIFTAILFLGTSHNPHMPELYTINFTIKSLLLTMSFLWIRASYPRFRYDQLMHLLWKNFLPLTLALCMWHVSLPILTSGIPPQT
Sequence of bovine heart mitochondrial membranes (complex I) (P03898 whole entry): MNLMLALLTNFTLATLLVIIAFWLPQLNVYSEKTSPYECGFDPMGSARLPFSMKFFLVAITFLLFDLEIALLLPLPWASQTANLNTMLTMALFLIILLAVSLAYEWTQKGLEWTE

## NC(N)=NC(N)=NCc1ccccc1 [compound 3, 2-benzyl-1-(diaminomethylidene)guanidine]
[1]; bovine heart mitochondrial membranes, inhibitor 0.05 mM, read-out: average % (rate, % of no-inhibitor control)
  remaining activity at 50 µM: 88.7%
[1]; bovine heart mitochondrial membranes, inhibitor 0.12 mM, read-out: average % (rate, % of no-inhibitor control)
  remaining activity at 120 µM: 76.2%
[1]; bovine heart mitochondrial membranes, inhibitor 0.25 mM, read-out: average % (rate, % of no-inhibitor control)
  remaining activity at 250 µM: 69.2%
[1]; bovine heart mitochondrial membranes, inhibitor 0.50 mM, read-out: average % (rate, % of no-inhibitor control)
  remaining activity at 500 µM: 55.6%
[1]; bovine heart mitochondrial membranes, inhibitor 1.25 mM, read-out: average % (rate, % of no-inhibitor control)
  remaining activity at 1250 µM: 44.4%
[1]; bovine heart mitochondrial membranes, inhibitor 2.50 mM, read-out: average % (rate, % of no-inhibitor control)
  remaining activity at 2500 µM: 37.2%
[1]; bovine heart mitochondrial membranes, inhibitor 5.00 mM, read-out: average % (rate, % of no-inhibitor control)
  remaining activity at 5000 µM: 31.2%
[1]
  LogIC50 (best fit value): -0.01339
  IC50: 0.97 mM
  HillSlope (best fit value): -0.5756
143B cells; 143B cells
  rotenone sensitive OCR after 6 hours of biguanide exposure, % control, average: 3.11 % control
  rotenone sensitive OCR after 6 hours of biguanide exposure, average: 3.64
143B cells
  inhibition of rotenone-sensitive respiration (in words): inhibit respiration
Permeabilized MDBK cells
  inhibition of OCR: exceeded 90%
  rotenone sensitive OCR after ADP stimulation, % of control, average: 12.04 % of control
  rotenone sensitive OCR after ADP stimulation, average: 33.92
Permeabilized MDBK cells; biguanide at IC50/5
  rotenone sensitive OCR after ADP stimulation, % of control, average: 12.04 % of control
  rotenone sensitive OCR after ADP stimulation, average: 33.92
  rotenone sensitive OCR after ADP stimulation: 60.28 and 86.89 and -11.73 and 15.23 and 8.14 and 44.74
  rotenone sensitive OCR after ADP stimulation, % of control: 21.39 % of control and 30.83 % of control and -4.16 % of control and 5.40 % of control and 2.89 % of control and 15.88 % of control
Permeabilized MDBK cells; permeabilized MDBK cells, after 30 min of biguanide exposure, IC50/5
  accumulation into mitochondria (matrix concentration relative to extracellular medium): more than 200 fold
Mouse liver mitochondria
  rotenone sensitive OCR after ADP stimulation, % of control, average: 32.07 % of control
  rotenone sensitive OCR after ADP stimulation, average: 11.13
  rotenone sensitive OCR after ADP stimulation, % of control, individual replicates: 34.06 % of control and 31.32 % of control and 34.05 % of control and 28.86 % of control
  rotenone sensitive OCR after ADP stimulation, individual replicates: 11.82 (2×) and 10.87 and 10.01

## CC(C)N=C(N)N=C(N)N [compound 4, 1-(diaminomethylidene)-2-(propan-2-yl)guanidine]
[1]; bovine heart mitochondrial membranes, inhibitor 0.62 mM, read-out: average % (rate, % of no-inhibitor control)
  remaining activity at 620 µM: 96.7%
[1]; bovine heart mitochondrial membranes, inhibitor 1.56 mM, read-out: average % (rate, % of no-inhibitor control)
  remaining activity at 1560 µM: 95.7%
[1]; bovine heart mitochondrial membranes, inhibitor 3.12 mM, read-out: average % (rate, % of no-inhibitor control)
  remaining activity at 3120 µM: 92.6%
[1]; bovine heart mitochondrial membranes, inhibitor 6.25 mM, read-out: average % (rate, % of no-inhibitor control)
  remaining activity at 6250 µM: 84.6%
[1]; bovine heart mitochondrial membranes, inhibitor 12.50 mM, read-out: average % (rate, % of no-inhibitor control)
  remaining activity at 12500 µM: 72.6%
[1]; bovine heart mitochondrial membranes, inhibitor 25.00 mM, read-out: average % (rate, % of no-inhibitor control)
  remaining activity at 25000 µM: 56.6%
[1]; bovine heart mitochondrial membranes, inhibitor 50.00 mM, read-out: average % (rate, % of no-inhibitor control)
  remaining activity at 50000 µM: 32.5%
[1]
  LogIC50 (best fit value): 1.46
  IC50: 28.8 mM
  HillSlope (best fit value): -1.156
143B cells; 143B cells, 3 mM in the extracellular medium
  estimated rate of uptake into mitochondria: > 1.5 mM/min
143B cells; 143B cells
  rotenone sensitive OCR after 6 hours of biguanide exposure, % control, average: 0.91 % control
  rotenone sensitive OCR after 6 hours of biguanide exposure, average: 1.07
143B cells
  inhibition of rotenone-sensitive respiration (in words): inhibit respiration
Permeabilized MDBK cells
  inhibition of OCR: exceeded 90%
  rotenone sensitive OCR after ADP stimulation, % of control, average: 3.16 % of control
  rotenone sensitive OCR after ADP stimulation, average: 8.89
Permeabilized MDBK cells; biguanide at IC50/5
  rotenone sensitive OCR after ADP stimulation, % of control, average: 3.16 % of control
  rotenone sensitive OCR after ADP stimulation, average: 8.89
  rotenone sensitive OCR after ADP stimulation: 14.20 and 41.21 and 15.97 and 1.99 and -24.18 and 20.17 and 9.00 and -7.21
  rotenone sensitive OCR after ADP stimulation, % of control: 5.04 % of control and 14.62 % of control and 5.67 % of control and 0.71 % of control and -8.58 % of control and 7.16 % of control and 3.19 % of control and -2.56 % of control
Mouse liver mitochondria
  rotenone sensitive OCR after ADP stimulation, % of control, average: 19.19 % of control
  rotenone sensitive OCR after ADP stimulation, average: 6.66
  rotenone sensitive OCR after ADP stimulation, % of control, individual replicates: 21.16 % of control and 18.53 % of control and 17.88 % of control
  rotenone sensitive OCR after ADP stimulation, individual replicates: 7.34 and 6.43 and 6.20
